Results taken from the supplement of paper PMC10307832.

Legend:
Test in all cases: relative viability (nuclei count vs DMSO), 5 days (fraction); higher = more cells survive
[1] = compound: CC1=C(C(=O)N2C=CSC2=N1)CCN3CCC(=C(C4=CC=CC=C4)C5=CC=C(C=C5)F)CC3 + CC(=O)c1c(C)c2cnc(Nc3ccc(N4CCNCC4)cn3)nc2n(C2CCCC2)c1=O [Palbociclib] (partner 0.5 µM)
Summary of the method: (§1)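 Each reported value is a median over duplicate plates. It expresses relative viability: treated-well nuclei count divided by vehicle-well nuclei count. Lung cancer cell lines in 1536-well plates were dosed by pin tool a day after seeding, alone with one drug or with a fixed anchor-drug dose plus five library-drug doses (not always all listed) in √10 steps, and nuclei were counted after 5 days.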

[2] = compound: CC1=C(C(=O)N2C=CSC2=N1)CCN3CCC(=C(C4=CC=CC=C4)C5=CC=C(C=C5)F)CC3 + CCNC(=O)c1noc(-c2cc(C(C)C)c(O)cc2O)c1-c1ccc(CN2CCOCC2)cc1 [Luminespib] (partner 0.01 µM)
Summary of the method: as §1

[3] = compound: CC1=C(C(=O)N2C=CSC2=N1)CCN3CCC(=C(C4=CC=CC=C4)C5=CC=C(C=C5)F)CC3 + COc1cccc2cc(-c3nc([C@H]4CC[C@H](C(=O)O)CC4)n4ncnc(N)c34)[nH]c12 [OSI-027] (partner 0.5 µM)
Summary of the method: as §1

[4] = compound: CC1=C(C(=O)N2C=CSC2=N1)CCN3CCC(=C(C4=CC=CC=C4)C5=CC=C(C=C5)F)CC3 + CS(=O)(=O)N1CCN(Cc2cc3nc(-c4cccc5[nH]ncc45)nc(N4CCOCC4)c3s2)CC1 [Pictilisib] (partner 1 µM)
Summary of the method: as §1

| Cell Line | relative viability ([1]; first compound 0.08 µM) | relative viability ([1]; first compound 0.253 µM) | relative viability ([1]; first compound 0.8 µM) | relative viability ([1]; first compound 2.53 µM) | relative viability ([1]; first compound 8 µM) | relative viability ([2]; first compound 0.08 µM) | relative viability ([2]; first compound 0.253 µM) | relative viability ([2]; first compound 0.8 µM) | relative viability ([2]; first compound 2.53 µM) | relative viability ([2]; first compound 8 µM) | relative viability ([3]; first compound 0.08 µM) | relative viability ([3]; first compound 0.253 µM) | relative viability ([3]; first compound 0.8 µM) | relative viability ([3]; first compound 2.53 µM) | relative viability ([3]; first compound 8 µM) | relative viability ([4]; first compound 0.08 µM) | relative viability ([4]; first compound 0.253 µM) | relative viability ([4]; first compound 0.8 µM) | relative viability ([4]; first compound 2.53 µM) | relative viability ([4]; first compound 8 µM) |
| --- | --- | --- | --- | --- | --- | --- | --- | --- | --- | --- | --- | --- | --- | --- | --- | --- | --- | --- | --- | --- |
| HCC-827 | 0.483 | 0.496 | 0.491 | 0.486 | 0.455 | 0.742 | 0.606 | 0.552 | 0.781 | 0.342 | 0.761 | 0.776 | 0.842 | 0.833 | 0.62 | 0.829 | 1.07 | 1.13 | 0.924 | 0.645 |
| LCLC-103H | 0.523 | 0.495 | 0.491 | 0.504 | 0.453 | 0.791 | 0.947 | 0.864 | 0.93 | 0.594 | 0.567 | 0.605 | 0.401 | 0.462 | 0.411 | 0.884 | 0.636 | 0.449 | 0.618 | 0.566 |
| NCI-H1975 | 0.601 | 0.493 | 0.598 | 0.795 | 0.348 | 0.202 | 0.303 | 0.167 | 0.292 | 0.181 | 0.912 | 0.673 | 0.679 | 0.836 | 0.437 | 0.337 | 0.296 | 0.271 | 0.291 | 0.273 |
| NCI-H1944 | 0.305 | 0.31 | 0.341 | 0.29 | 0.259 | 0.782 | 0.926 | 0.751 | 0.775 | 0.584 | 0.408 | 0.42 | 0.37 | 0.426 | 0.31 | 0.369 | 0.336 | 0.343 | 0.333 | 0.37 |
| NCI-H441 | 0.219 | 0.196 | 0.2 | 0.208 | 0.234 | 0.314 | 0.477 | 0.369 | 0.361 | 0.339 | 0.505 | 0.582 | 0.576 | 0.754 | 0.416 | – | 0.519 | 0.464 | 0.563 | 0.366 |
| SK-LU-1 | 0.378 | 0.375 | 0.406 | 0.416 | 0.36 | 0.228 | 0.217 | 0.192 | 0.21 | 0.184 | 0.396 | 0.341 | 0.38 | 0.318 | 0.294 | 0.538 | 0.587 | 0.655 | 0.573 | 0.494 |
| A-427 | 0.533 | 0.565 | 0.499 | 0.541 | 0.531 | 0.91 | 0.919 | 0.923 | 1.15 | 0.88 | 0.421 | 0.364 | 0.421 | 0.49 | 0.432 | 0.801 | 0.86 | 0.676 | 0.83 | 0.737 |
| COR-L23 | 0.292 | 0.306 | 0.255 | 0.286 | 0.27 | 0.61 | 0.831 | 0.785 | 0.671 | 0.504 | 0.778 | 0.667 | 0.702 | 0.778 | 0.619 | 0.775 | 0.595 | 0.945 | 0.69 | 0.52 |
| NCI-H838 | 0.207 | 0.213 | 0.268 | 0.207 | 0.191 | 0.298 | 0.263 | 0.227 | 0.318 | 0.259 | 0.445 | 0.339 | 0.37 | 0.454 | 0.352 | 0.439 | 0.489 | 0.466 | 0.58 | 0.444 |
| NCI-H322M | 0.552 | 0.492 | 0.479 | 0.504 | 0.524 | 0.768 | 0.899 | 0.928 | 0.888 | 0.81 | 0.522 | 0.509 | 0.547 | 0.596 | 0.442 | 0.513 | 0.526 | 0.524 | 0.526 | 0.496 |
| EKVX | 0.371 | 0.366 | 0.349 | 0.397 | 0.293 | 0.768 | 0.915 | 0.936 | 0.871 | 0.825 | 0.46 | 0.708 | 0.777 | 0.744 | 0.545 | 0.38 | 0.412 | 0.479 | 0.408 | 0.36 |
| HOP-62 | 0.439 | 0.479 | 0.457 | 0.411 | 0.288 | 0.926 | 0.909 | 0.923 | 0.92 | 0.461 | 0.92 | 0.771 | 0.837 | 0.824 | 0.488 | 0.891 | 0.72 | 0.827 | 0.745 | 0.611 |
| PC-14 | 0.358 | 0.574 | 0.455 | 0.622 | 0.328 | 0.168 | 0.175 | 0.151 | 0.176 | 0.151 | 0.529 | 0.981 | 1.04 | 1.17 | 0.507 | 0.604 | 0.617 | 0.708 | 0.93 | 0.399 |
| NCI-H1648 | 0.254 | 0.316 | 0.22 | 0.326 | 0.249 | – | – | – | – | – | 0.229 | – | – | 0.209 | 0.265 | – | – | – | – | – |
| SW 900 | 0.524 | 0.514 | 0.543 | 0.58 | 0.526 | 0.181 | 0.182 | 0.188 | 0.188 | 0.174 | 0.452 | 0.543 | 0.582 | 0.719 | 0.276 | – | – | – | – | – |
| NCI-H522 | 1.08 | 1.09 | 0.809 | 0.977 | 0.933 | 1.18 | 1.16 | 1.21 | 1.2 | 0.897 | 0.857 | 0.804 | 0.766 | 0.633 | 0.811 | – | – | – | – | – |
| A549 | – | – | – | – | – | – | – | – | – | – | – | – | – | – | – | 0.643 | 0.434 | 0.467 | 0.567 | 0.422 |
| HCC-78 | 0.336 | 0.462 | 0.484 | 0.519 | 0.349 | – | – | – | – | – | 0.352 | 0.349 | 0.406 | 0.356 | 0.326 | 0.216 | 0.206 | 0.226 | 0.212 | 0.273 |
| Calu-6 | – | – | – | – | – | – | – | – | – | – | – | – | – | – | – | 0.937 | 0.847 | 0.915 | 1.2 | 0.54 |
| NCI-H1703 | – | – | – | – | – | – | – | – | – | – | – | – | – | – | – | 0.298 | 0.248 | 0.266 | 0.295 | 0.248 |
